Values quoted from earlier work as cited in patent US12383619B2, “Use of glutamate modulating agents with immunotherapies to treat cancer” (Biohaven Therapeutics Ltd., priority 2016, dated 2025).
Read-outs that look alike come from different tables or passages of the source.

Tests used:
advanced melanoma = settings: 3 mg/kg every 3 weeks, cited from earlier work
[1] = tested on: advanced (unresectable or metastatic) melanoma; settings: cited from earlier work; for median OS: 3 mg/kg monotherapy group
PD-1 = biological target: T1, PD-1 (Homo sapiens, UniProt Q15116); settings: 15 subjects, 0.3 mg/kg to 10 mg/kg, across all doses; cited from earlier work
T1 construct: indicate that PD-1 occupancy appears to be dose-independent in this dose range; host or cells: endogenous receptor in dosed subjects

[2] = tested on: advanced (unresectable or metastatic) melanoma; settings: cited from earlier work
[3] = patients who required re-treatment, ipilimumab monotherapy group
[4] = nivolumab 3 mg/kg every 2 weeks vs dacarbazine

T1 sequence (Q15116 25-288): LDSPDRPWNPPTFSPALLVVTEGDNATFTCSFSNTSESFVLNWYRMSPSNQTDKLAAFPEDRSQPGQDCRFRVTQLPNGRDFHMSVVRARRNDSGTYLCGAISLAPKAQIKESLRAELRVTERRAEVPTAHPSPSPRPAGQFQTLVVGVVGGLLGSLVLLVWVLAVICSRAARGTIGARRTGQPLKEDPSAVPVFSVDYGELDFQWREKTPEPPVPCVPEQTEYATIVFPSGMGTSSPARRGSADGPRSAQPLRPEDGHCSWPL

Ipilimumab: fully human IgG1 monoclonal antibody that blocks the binding of CTLA-4 to its B7 ligands
Best overall response: ORR % (advanced melanoma): 12% | Complete response % (advanced melanoma): 1% | OS: % of patients with event (advanced melanoma): (40%) | OS: Median in months (advanced melanoma): Not reached | OS: Number of patients with event (advanced melanoma): 112 | PFS: % of patients with event (advanced melanoma): (68%) | PFS: Median in months (advanced melanoma): 2.8 months | PFS: Number of patients with event (advanced melanoma): 188 | Partial response % (advanced melanoma): 10% | Response duration: % ongoing (advanced melanoma): 88% | Response duration: Median in months (advanced melanoma; patients with confirmed complete or partial response): Not reached | median OS ([1]; patients with CR or PR): not reached | median OS ([1]; patients with PD): 8 months | median OS ([1]; patients with SD): 22 months | OS at 1 year % (95% CI) ([1]; 3 mg/kg monotherapy, n = 137): 46% (37.0, 54.1) | OS at 2 years % (95% CI) ([1]; 3 mg/kg monotherapy, n = 137): 24% (16.0, 31.5) | Overall survival: Median Months ([1]; 3 mg/kg monotherapy, n = 137): 10 months | hazard ratio (HR) for comparison of OS ([1]; ipilimumab monotherapy vs gp100): 0.66 | BORR [1, 3]: 38% | disease control rate (DCR) (CR+PR+SD) [1, 3]: 75%

nivolumab
mean occupancy rate (PD-1) (PD-1): 85% | mean plateau occupancy (PD-1) (PD-1): 72% | Complete response (CR) (number) ([2]; 3 mg/kg every 2 weeks, n = 210): 16 | Objective response (number) ([2]; 3 mg/kg every 2 weeks, n = 210): 84 | Overall survival: Events ([2]; 3 mg/kg every 2 weeks, n = 210): 50 | Overall survival: Events, figure in parentheses ([2]; 3 mg/kg every 2 weeks, n = 210): (23.8) | Partial response (PR) (number) ([2]; 3 mg/kg every 2 weeks, n = 210): 68 | Progression-free survival: Events ([2]; 3 mg/kg every 2 weeks, n = 210): 108 | Progression-free survival: Events, figure in parentheses ([2]; 3 mg/kg every 2 weeks, n = 210): (51.4) | Stable disease (SD) (number) ([2]; 3 mg/kg every 2 weeks, n = 210): 35 | Complete response (CR) (%) ([2]; 3 mg/kg every 2 weeks): (7.6%) | Median duration of response ([2]; 3 mg/kg every 2 weeks): Not reached | Median time to response ([2]; 3 mg/kg every 2 weeks): 2.1 Months | Objective response (%) ([2]; 3 mg/kg every 2 weeks): (40.0%) | Overall survival: Median ([2]; 3 mg/kg every 2 weeks): Not reached | Overall survival: Rate At 6 months ([2]; 3 mg/kg every 2 weeks): 84.1 | Overall survival: Rate At 12 months ([2]; 3 mg/kg every 2 weeks): 72.9 | Partial response (PR) (%) ([2]; 3 mg/kg every 2 weeks): (32.4%) | Progression-free survival: Median ([2]; 3 mg/kg every 2 weeks): 5.1 | Progression-free survival: Rate At 6 months ([2]; 3 mg/kg every 2 weeks): 48.0 | Progression-free survival: Rate At 12 months ([2]; 3 mg/kg every 2 weeks): 41.8 | Stable disease (SD) (%) ([2]; 3 mg/kg every 2 weeks): (16.7%) | Objective response: Odds ratio [2, 4]: 4.06 | Overall survival: Hazard ratio [2, 4]: 0.42 | Progression-free survival: Hazard ratio [2, 4]: 0.43
